Measured values taken from PMC8667898, “Topo II inhibition and DNA intercalation by new phthalazine-based derivatives as potent anticancer agents: design, synthesis, anti-proliferative, docking, and in vivo studies” (Journal of Enzyme Inhibition and Medicinal Chemistry, 2021).

What was measured:
[1] = tested on: HCT-116 cells (colorectal carcinoma); assay: MTT anti-proliferative assay, HCT-116; format: cell-based, human
Description: (§1) Anti-proliferative activities of the target compounds were assessed via the standard MTT method[38–40] against three cancer cell lines, namely, hepatocellular carcinoma (HepG-2), colorectal carcinoma (HCT-116), and human breast adenocarcinoma (MCF-7). Doxorubicin was used in this test as a positive control.
(§2) Anti-proliferative activity of the synthesised compounds was estimated using the MTT assay protocol[8]^,[38–40] as shown in Supplementary data.
(§3) 4.2.1. In vitro anti-proliferative activity against MCF-7, HepG-2 and HCT-116 The cells were cultured in RPMI-1640 medium supplemented with 10% fetal bovine serum (FBS), penicillin (100 unit /mL) and streptomycin sulphate (100µg/mL) at 37 °C in a 5% CO2 incubator.
(§4) Then, cells were dropped in 96-well plates at a density of 3-8 × 10^3 cells/well and incubated for two days in a 5% CO2 incubator at 37 °C. Then, the cells were treated with the synthesized compounds and the cell cultures were continued incubated for 24 h. However, Different concentrations of the compound under test (0.0, 5.0, 12.5, 25.0 and 50 mg/ml) were added to the cell monolayer. Then, (3-[4,5-dimethylthiazol-2-yl]- 2,5-diphenyltetrazolium bromide) MTT solution (20 µl, 5mg/mL) was added to each well and incubated for additional 4 h. The formed purple crystals of MTT-formazan were dissolved in 100 µl DMSO each well; the absorbance of each well was measured at 570 nm using a plate reader (EXL 800, USA). All of the compounds were tested three times. The relative cell viability in percentage was calculated. The results for IC50 values of the active compounds are […]
(§5) The data represented the mean of three independent experiments in triplicate and were expressed as means ± SD. […]
(§6) of the cells could survive. […]

[2] = tested on: MCF-7 cells (human breast adenocarcinoma); assay: MTT anti-proliferative assay, MCF-7; format: cell-based; details: Homo sapiens, MCF7, MTT, mean ± SD of three separate experiments; read-out: In vitro Cytotoxicity IC50 MCF-7
Description: as §1, §2, §3, §4, §5, §6

[3] = tested on: Solid Ehrlich Carcinoma (SEC); assay: In vivo antitumor activity against Solid Ehrlich Carcinoma; design: species or system Swiss albino mice; details: SEC-bearing mice, 5 mg/kg BW I.P.
Description: To examine the in vivo anticancer activity of compound 9d, adult female Swiss albino mice (30 mice) inoculated with I.P. injection of Solid Ehrlich Carcinoma (SEC) tumour cell lines in a volume of 0.2 ml physiological saline contains 1 × 10^6 viable cells for 24 h.
These mice were randomly divided into four groups (7 mice/group). […] Bodyweight and survival were recorded daily until the 24th day in both treated and control groups. At the end of the experiment, the blood of each group was collected under light anaesthesia for the estimation of hematological and biochemical assays. The anaesthetised animals were then sacrificed to evaluate of the antitumor activity and to conduct hematological, biochemical, and histopathological assays, Figure 3.
Adult female Swiss albino mice purchased from Theodor Bilharzia Research Institute, Giza, Egypt, with an average bodyweight of (18–23) g were used. Mice were housed under constant conditions of 12 h light/dark cycle in a […], with free access to standard laboratory mice food and water. All procedures related to care and maintenance of the animals were performed according to the international guiding principles for animal research and approved by the Faculty of Science, Suez Canal University bioethics and animal ethics committee (Approval number REC-07–2021).
Solid Ehrlich carcinoma (SEC) was purchased from the National Cancer Institute (Cairo University, Egypt). The tumour cell line was proliferated in mice through serial intraperitoneal (I.P.) transplantation of a volume of 0.2 ml physiological saline contains 1 × 10^6 viable cells for 24 h. SEC cells were collected 7 days after I.P. implantation. The harvested cells were diluted with saline to obtain a concentration of 5 × 10^6 viable SEC cells/mL. A volume of 0.2 ml saline contains 1 × 10^6 SEC cells that were I.P. implanted into each normal mouse. SEC cells (1 × 10^6 tumour cells/mouse) were implanted subcutaneously into the right thigh of the hind limb.
The experimental animals were randomly divided into four groups. Group 1 served as the normal saline control (5 ml/kg B.Wt., I.P.). Group 2 served as the SEC control (1 × 10^6 cells/mouse). Group 3 served as the compound-treated group (5 mg/kg B.Wt., I.P.). […] Bodyweight and survival were recorded daily until the 24th day in both treated and control groups. At the end of the experiment, the blood of each group was collected under light anaesthesia to the estimate of hematological and biochemical assays. The anaesthetised animals were then sacrificed for evaluation of the antitumor activity and histopathological examination.
It includes tumour volume, weight, and tumour inhibition ratio (TIR%). Time interval measurements of tumour volume using digital Vernier calliper (Tricle Brand, Shanghai, China). Measure tumour length and width using a clipper and then calculate tumour volume using formulations V = (L × W × W)/2, where V is tumour volume, W is tumour width, L is tumour length. While TIR% was calculated according to the following equation Tumor volume (Control)−Tumor volume (treated)/Tumor volume (control)× 100.

In the case of `CCCc1nnc2c3ccccc3c(NN=Cc3ccc([N+](=O)[O-])cc3)nn12` [Compound 9d, 6-[2–(4-Nitrobenzylidene)hydrazineyl]-3-propyl-[1,2, 4]triazolo[3,4-a]phthalazine], the IC50 ([1]; Homo sapiens, HCT-116, MTT, mean ± SD of three separate experiments, read-out: In vitro Cytotoxicity IC50 HCT-116) is reported as 4.74 ± 0.15 µM, the “times more active than doxorubicin, HCT-116” value ([1]; ratio of IC50 values vs doxorubicin) is reported as 2.03 times and the IC50 [2] is reported as 4.95 ± 0.1 µM. For the same molecule, the tumour volume [3] was 19 mm^3, the “reduction of the increase in solid tumour mass” value ([3]; compared to SEC control) was 63.4% and the solid tumour mass ([3]; SEC control 194 mg) was 71 mg. The “tumour inhibition ratio (TIR) %” value ([3]; from tumour volume, compared to control) was 64.5%.
